Measured values published in article PMC6384562, “Isolation of Two New Compounds and Other Constituents from Leaves of Piper crocatum and Study of Their Soluble Epoxide Hydrolase Activities” (Molecules, 2019).

Target: T1, soluble epoxide hydrolase (sEH) (Homo sapiens, UniProt P34913)
T1 construct: gene EPHX2
T1 sequence (P34913 1-555): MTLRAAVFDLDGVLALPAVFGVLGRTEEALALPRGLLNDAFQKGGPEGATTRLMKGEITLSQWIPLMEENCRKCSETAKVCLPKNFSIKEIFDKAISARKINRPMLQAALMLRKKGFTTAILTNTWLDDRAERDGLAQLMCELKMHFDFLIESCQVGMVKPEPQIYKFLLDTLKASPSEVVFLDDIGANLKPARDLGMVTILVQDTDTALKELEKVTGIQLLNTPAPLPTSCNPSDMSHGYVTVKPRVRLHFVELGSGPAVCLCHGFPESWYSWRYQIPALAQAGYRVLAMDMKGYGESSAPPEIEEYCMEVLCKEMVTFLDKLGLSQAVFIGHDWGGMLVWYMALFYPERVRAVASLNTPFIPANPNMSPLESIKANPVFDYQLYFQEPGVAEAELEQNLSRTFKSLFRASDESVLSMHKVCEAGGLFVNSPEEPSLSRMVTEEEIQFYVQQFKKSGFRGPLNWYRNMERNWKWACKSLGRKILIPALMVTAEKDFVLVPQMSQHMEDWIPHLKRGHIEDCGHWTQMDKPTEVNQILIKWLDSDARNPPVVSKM
Test: fluorescence assay with recombinant human sEH and PHOME substrate
Assay type: biochemical

- IC50: 58.5 ± 0.5 µM
SMILES: C=CCc1cc(OC)c(O[C@@H]2O[C@H](CO)[C@@H](O)[C@H](O)[C@H]2O)c(OC)c1 [compound 5, erigeside II]
